Data on four molecules can be found in US9918915B2, “Personal care compositions providing enhanced cooling sensation” (THE PROCTER & GAMBLE COMPANY, priority 2007, dated 2018).

For the experiment, the system named is panelists. Briefly: Sensory evaluation of cooling sensation after brushing with coolant dentifrice followed by aqueous rinse with or without calcium. The experiment is classed as in vivo, human. More on the design: key to Cooling Sensation Score: 0 = no cooling, 60 = intense cooling; 7.5 = definite cooling. Particulars: for Cooling Sensation Score: 0-60 scale. How it is done: Sensory evaluation studies of coolant activity were conducted using a methodology patterned after the techniques described in M. C. Meilgaard, et al., Sensory Evaluation Techniques, 4th Ed. (2007). In one study, a panel of 11 trained sensory experts evaluated cooling sensation experienced after brushing with a dentifrice containing coolant(s) followed by rinsing with an aqueous rinse containing a calcium ion source. Panelists brushed teeth with 1.5 grams of a test dentifrice (containing coolant) or control (no coolant) and then expectorated. After brush expectoration, panelists evaluated cooling intensity, assigning a number between 0 (no cooling) to 60 (intense cooling). Panelists then rinsed mouth with 15 ml. of an aqueous rinse (with or without calcium) and expectorated. After rinse expectoration, panelists evaluated cooling intensity according to the same 0 to 60 scale. Evaluations were conducted at 5, 15, 30, 45, 60 minute, etc. time points. At each evaluation, panelists were instructed to breathe in through pursed lips and evaluate overall cooling sensation. In this test, a numerical score of 7.5 indicates meaningful or definite cooling.

Where [1] appears, read: 800 ppm coolant in paste, rinse Ca+2 0 ppm, 0 min.
Where [2] appears, read: 800 ppm coolant in paste, rinse Ca+2 0 ppm, 5 min.
The mark [3] stands for this setting: 800 ppm coolant in paste, rinse Ca+2 0 ppm, 15 min.
Setting [4] is: 800 ppm coolant in paste, rinse Ca+2 0 ppm, 30 min.
The mark [5] stands for this setting: 800 ppm coolant in paste, rinse Ca+2 0 ppm, 45 min.
Where [6] appears, read: 800 ppm coolant in paste, rinse Ca+2 0 ppm, 60 min.
Where [7] appears, read: 800 ppm coolant in paste, rinse Ca+2 723 ppm, 0 min.
The mark [8] stands for this setting: 800 ppm coolant in paste, rinse Ca+2 723 ppm, 5 min.
Where [9] appears, read: 800 ppm coolant in paste, rinse Ca+2 723 ppm, 15 min.
[10] abbreviates: 800 ppm coolant in paste, rinse Ca+2 723 ppm, 30 min.
The mark [11] stands for this setting: 800 ppm coolant in paste, rinse Ca+2 723 ppm, 45 min.
Where [12] appears, read: 800 ppm coolant in paste, rinse Ca+2 723 ppm, 60 min.

Take `CCOC(=O)CNC(=O)C1CC(C)CCC1C(C)C` (centres unmarked) [WS-5, N-ethoxycarbonylmethyl-ρ-menthan-3-carboxamide]: the “Cooling Sensation Score” value is listed as 29.2 under setting [1]; 22.4 under setting [2]; 8.3 under setting [3]; 1.0 under setting [4]; 0 under setting [5]; 0 under setting [6]. For the same molecule, the “Cooling Sensation Score” value runs as follows: under setting [7], 30.8; under setting [8], 22.2; under setting [9], 8.4; under setting [10], 2.2; under setting [11], 0; under setting [12], 0.

Turning to `CC(C)[C@@H]1CC[C@@H](C)CC12OCC(CO)O2` (some centres unmarked) [MGA, menthone glycerol acetal], the “Cooling Sensation Score” value (1500 ppm coolant in paste, rinse Ca+2 0 ppm, 0 min.) turned out to be 16.5; the “Cooling Sensation Score” value (1500 ppm coolant in paste, rinse Ca+2 0 ppm, 5 min.) is listed as 13.6; the “Cooling Sensation Score” value (1500 ppm coolant in paste, rinse Ca+2 0 ppm, 15 min.) came out at 4.4; the “Cooling Sensation Score” value (1500 ppm coolant in paste, rinse Ca+2 0 ppm, 30 min.) is 0; the “Cooling Sensation Score” value (1500 ppm coolant in paste, rinse Ca+2 0 ppm, 45 min.) was 0; the “Cooling Sensation Score” value (1500 ppm coolant in paste, rinse Ca+2 0 ppm, 60 min.) amounted to 0. Besides, the “Cooling Sensation Score” value is, setting by setting: (1500 ppm coolant in paste, rinse Ca+2 723 ppm, 0 min.) 20.7; (1500 ppm coolant in paste, rinse Ca+2 723 ppm, 5 min.) 18.3; (1500 ppm coolant in paste, rinse Ca+2 723 ppm, 15 min.) 7.0; (1500 ppm coolant in paste, rinse Ca+2 723 ppm, 30 min.) 1.4; (1500 ppm coolant in paste, rinse Ca+2 723 ppm, 45 min.) 0; (1500 ppm coolant in paste, rinse Ca+2 723 ppm, 60 min.) 0. For the same molecule, the “Calcium enhancing effect on cooling” value (1500 ppm level of coolant in dentifrice) is on record as “calcium enhancing effect was also observed”. Further, for the setting “at the levels of coolant and calcium used”, the “Potentiating effect of calcium ions on cooling intensity and duration” value was “particularly evident”.

`CNC(=O)C(C)(C(C)C)C(C)C` [WS-23, N,2,3-trimethyl-2-isopropylbutanamide]: the “Cooling Sensation Score” value is, setting by setting: under setting [1], 15.4; under setting [2], 7.4; under setting [3], 3.0; under setting [4], 0; under setting [5], 0; under setting [6], 0. In addition, the “Cooling Sensation Score” value by setting is: under setting [7], 18.8; under setting [8], 4.9; under setting [9], 1.0; under setting [10], 0; under setting [11], 0; under setting [12], 0.

Turning to `CC1CCC(C(C)C)C(OC(=O)C(C)O)C1` (centres unmarked) [Menthyl Lactate, menthyl lactate], the “Cooling Sensation Score” value (1000 ppm coolant in paste, rinse Ca+2 0 ppm, 0 min.) was determined as 23.0; the “Cooling Sensation Score” value (1000 ppm coolant in paste, rinse Ca+2 0 ppm, 5 min.) was 12.7; the “Cooling Sensation Score” value (1000 ppm coolant in paste, rinse Ca+2 0 ppm, 15 min.) was determined as 2.3; the “Cooling Sensation Score” value (1000 ppm coolant in paste, rinse Ca+2 0 ppm, 30 min.) was found to be 0; the “Cooling Sensation Score” value (1000 ppm coolant in paste, rinse Ca+2 0 ppm, 45 min.) is 0; the “Cooling Sensation Score” value (1000 ppm coolant in paste, rinse Ca+2 0 ppm, 60 min.) is listed as 0. The “Cooling Sensation Score” value (1000 ppm coolant in paste, rinse Ca+2 723 ppm, 0 min.) came to 23.5; the “Cooling Sensation Score” value (1000 ppm coolant in paste, rinse Ca+2 723 ppm, 5 min.) is 12.4; the “Cooling Sensation Score” value (1000 ppm coolant in paste, rinse Ca+2 723 ppm, 15 min.) was 2.2; the “Cooling Sensation Score” value (1000 ppm coolant in paste, rinse Ca+2 723 ppm, 30 min.) is recorded as 0; the “Cooling Sensation Score” value (1000 ppm coolant in paste, rinse Ca+2 723 ppm, 45 min.) is 0; the “Cooling Sensation Score” value (1000 ppm coolant in paste, rinse Ca+2 723 ppm, 60 min.) is on record as 0.
